Patent publication US20230257351A1, “SUBSTITUTED N-[…] HAVING P2X4 RECEPTOR ANTAGONISTIC ACTIVITY” (Bayer Aktiengesellschaft, priority 2020, published 2023)

Tests used:
[1] = molecular target: T1, human P2X4 (Homo sapiens, UniProt Q99571); assay: Human P2X4 HEK Cell FLIPR Assay; format: cell-based; details: HEK293 stably expressing human P2X4, agonist Bz-ATP 3 μM (EC80); for IC50: read-out: Human P2X4 HEK Cells (FLIPR Assay) avg IC50
T1 construct: expressed in transfected cells
T1 sequence (Q99571 1-388): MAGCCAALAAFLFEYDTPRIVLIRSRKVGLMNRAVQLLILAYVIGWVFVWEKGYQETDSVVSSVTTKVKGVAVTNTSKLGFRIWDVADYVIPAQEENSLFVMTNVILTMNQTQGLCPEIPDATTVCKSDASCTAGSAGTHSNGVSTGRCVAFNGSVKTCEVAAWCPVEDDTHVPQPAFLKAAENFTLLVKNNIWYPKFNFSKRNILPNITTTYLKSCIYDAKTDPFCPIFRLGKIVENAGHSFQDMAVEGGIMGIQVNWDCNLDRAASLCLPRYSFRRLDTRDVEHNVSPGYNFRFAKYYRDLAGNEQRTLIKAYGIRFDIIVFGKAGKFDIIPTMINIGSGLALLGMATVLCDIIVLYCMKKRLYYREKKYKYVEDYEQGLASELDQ
Outline: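 HEK293 cells stably expressing human P2X4 were loaded with Fluo8-AM (30 min, 37 °C, HBSS/HEPES pH 7.4 with probenecid), then preincubated 30 min at room temperature with compound, 25 μM–1 nM final, 0.5% DMSO. Bz-ATP-evoked calcium fluorescence was read on FLIPR; data were normalized to agonist control and given a four-parameter fit for IC50.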

[2] = molecular target: T2, rat P2X4 (Rattus norvegicus, UniProt P51577); assay: FLIPR Method for Rat P2X4 1321N1 Astrocytoma Cells; format: cell-based; details: 1321N1 stably expressing rat P2X4; agonist MgATP 5 μM (EC80)
T2 construct: expressed in transfected cells
T2 sequence (P51577 1-388): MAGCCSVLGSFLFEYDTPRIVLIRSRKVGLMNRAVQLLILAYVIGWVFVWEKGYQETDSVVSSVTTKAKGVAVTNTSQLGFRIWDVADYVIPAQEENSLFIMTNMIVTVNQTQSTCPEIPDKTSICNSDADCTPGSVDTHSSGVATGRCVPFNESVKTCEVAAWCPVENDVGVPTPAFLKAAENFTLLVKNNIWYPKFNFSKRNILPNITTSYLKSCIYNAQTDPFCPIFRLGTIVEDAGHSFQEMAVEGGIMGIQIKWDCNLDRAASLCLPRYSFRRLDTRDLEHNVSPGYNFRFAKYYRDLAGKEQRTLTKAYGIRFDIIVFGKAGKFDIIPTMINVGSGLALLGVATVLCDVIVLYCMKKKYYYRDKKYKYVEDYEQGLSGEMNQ
Method: Compounds were tested on a 1321N1 cell line stably expressing rat P2X4. Cells were cultured on collagen-I-coated 384-well plates at a density of 10,000 cells/well and incubated overnight at 37° C., 5% CO2. P2X4 function was assessed by measuring intracellular calcium fluxes caused by Magnesium-ATP (MgATP) using the calcium-chelating dye Fluo8-AM (Molecular Devices) with the Fluorescent Imaging Plate Reader Tetra (FLIPR^Tetra; Molecular Devices CA). On the day of the assay, the medium was removed and the cells were incubated for 30 minutes at 37° C. and 5% CO2 in 30 μl of dye buffer (Hank's balanced salt solution, 10 mM HEPES, 1.8 mM CaCl2, 1 mM MgCl2, 2 mM probenecid, 5 mM D-glucose monohydrate, 5 μM Fluo8-AM, pH=7.4).
Compounds diluted in probenecid buffer (Hank's balanced salt solution, 10 mM HEPES, 1.8 mM CaCl2, 1 mM MgCl2, 2 mM probenecid, 5 mM D-glucose monohydrate, pH=7.4) at ten concentrations ranging from 25 μM to 1 nM (final concentration) were dispensed and incubated for 30 minutes at room temperature. The agonist, MgATP (Sigma-Aldrich Chemie GmbH, DE), was added at a final concentration of 5 μM, representing the EC80 routinely determined. The final assay volume was 50 μl and final DMSO concentration was 0.5%.
The fluorescence intensity reflecting intracellular calcium changes was recorded before and after MgATP addition, at an excitation and emission wavelengths of 470-495 nm and 515-575 nm respectively.
The compounds were tested in triplicates and fluorescence intensity raw data normalized to the agonist control and fitted to the four-parameter logistic equation:
Y=Bottom+(Top−Bottom)/(1+10^((Log IC50−X)*HillSlope))
Assay plate acceptance was based on the signal window (S/B)[…] and the reference compound pIC50 within ±[…] the mean of historic pIC50 of the compound. Failure to meet two of the three criteria determined exclusion of the plate's results. In Table 10 below the results for the assays are reported

Row | Structure (SMILES) | Human P2X4 HEK Cells (FLIPR Assay) avg Efficacy [1] | IC50 [1] | IC50 [2] | Rat P2X4 1321N1 Astrocytoma Cells (FLIPR Assay) avg Efficacy [2]
1 | CC(=O)N(c1ccc(F)cc1)c1cc(NC(=O)Cc2ccc(F)cc2Cl)cnn1 [Example 190, N-{5-[2-(2-chloro-4-fluorophenyl)acetamido]pyridazin-3-yl}-N-(4-fluorophenyl)acetamide] | 95% | 716 nM |  | 
2 | CC(=O)N(c1ccc(F)cc1)c1cc(NC(=O)Cc2cccc(F)c2Cl)cnn1 [Example 191, N-{5-[2-(2-chloro-3-fluorophenyl)acetamido]pyridazin-3-yl}-N-(4-fluorophenyl)acetamide] | 92% | 739 nM |  | 
3 | CC(=O)N(c1ccc(F)cc1)c1cc(NC(=O)Cc2ccccc2Cl)cnn1 [Example 192, N-{5-[2-(2-chlorophenyl)acetamido]pyridazin-3-yl}-N-(4-fluorophenyl)acetamide] | 90% | 766 nM |  | 
4 | CC(=O)N(c1ccc(F)cc1)c1cc(NC(=O)Cc2c(Cl)cccc2Cl)cnn1 [Example 193, N-{5-[2-(2,6-dichlorophenyl)acetamido]pyridazin-3-yl}-N-(4-fluorophenyl)acetamide] | 93% | 868 nM |  | 
5 | CC(=O)N(c1cccc(F)c1)c1cc(NC(=O)Cc2ccccc2Cl)cnn1 [Example 196, N-{5-[2-(2-chlorophenyl)acetamido]pyridazin-3-yl}-N-(3-fluorophenyl)acetamide] | 94% | 546 nM |  | 
6 | CC(=O)N(c1cccc(F)c1)c1cc(NC(=O)Cc2c(F)cccc2Cl)cnn1 [Example 197, N-{5-[2-(2-chloro-6-fluorophenyl)acetamido]pyridazin-3-yl}-N-(3-fluorophenyl)acetamide] | 93% | 674 nM |  | 
7 | CC(=O)N(c1cccc(F)c1)c1cc(NC(=O)Cc2ccc(F)cc2Cl)cnn1 [Example 198, N-{5-[2-(2-chloro-4-fluorophenyl)acetamido]pyridazin-3-yl}-N-(3-fluorophenyl)acetamide] | 96% | 943 nM |  | 
8 | CC(=O)N(c1ccc(F)c(F)c1)c1cc(NC(=O)Cc2cccc(F)c2Cl)cnn1 [Example 201, N-{5-[2-(2-chloro-3-fluorophenyl)acetamido]pyridazin-3-yl}-N-(3,4-difluorophenyl)acetamide] | 89% | 510 nM |  | 
9 | CC(=O)N(c1ccc(F)c(F)c1)c1cc(NC(=O)Cc2ccc(F)cc2Cl)cnn1 [Example 202, N-{5-[2-(2-chloro-4-fluorophenyl)acetamido]pyridazin-3-yl}-N-(3,4-difluorophenyl)acetamide] | 94% | 557 nM |  | 
10 | CC(=O)N(c1ccc(F)c(F)c1)c1cc(NC(=O)Cc2c(F)cccc2Cl)cnn1 [Example 203, N-{5-[2-(2-chloro-6-fluorophenyl)acetamido]pyridazin-3-yl}-N-(3,4-difluorophenyl)acetamide] | 86% | 737 nM |  | 
11 | CC(=O)N(c1cc(F)cc(F)c1)c1cc(NC(=O)Cc2c(F)cccc2Cl)cnn1 [Example 208, N-{5-[2-(2-chloro-6-fluorophenyl)acetamido]pyridazin-3-yl}-N-(3,5-difluorophenyl)acetamide] | 91% | 669 nM |  | 

Now those with a lower IC50 [1], led by results:

Row | Human P2X4 HEK Cells (FLIPR Assay) avg Efficacy [1] | IC50 [1] | IC50 [2] | Rat P2X4 1321N1 Astrocytoma Cells (FLIPR Assay) avg Efficacy [2] | Structure (SMILES)
12 | 89% | 224 nM | 96.7 nM | 82% | CC(=O)N(c1ccc(F)c(F)c1)c1cc(NC(=O)Cc2ccccc2Cl)ccn1 [Example 1, N-{4-[2-(2-chlorophenyl)acetamido]pyridin-2-yl}-N-(3,4-difluorophenyl)acetamide]
13 | 100% | 397 nM | 855 nM | 100% | CC(=O)N(c1cccc(C(F)F)c1)c1cc(NC(=O)Cc2cccc(F)c2Cl)ccn1 [Example 4, N-{4-[2-(2-chloro-3-fluorophenyl)acetamido]pyridin-2-yl}-N-[3-(difluoromethyl)phenyl]acetamide]
14 | 102% | 386 nM | 440 nM | 100% | CC(=O)N(c1cccc(C(F)F)c1)c1cc(NC(=O)Cc2c(Cl)cccc2Cl)ccn1 [Example 5, N-{4-[2-(2,6-dichlorophenyl)acetamido]pyridin-2-yl}-N-[3-(difluoromethyl)phenyl]acetamide]
15 | 96% | 289 nM | 790 nM | 93% | CC(=O)N(c1cccc(C#N)c1)c1cc(NC(=O)Cc2ccccc2Cl)ccn1 [Example 13, N-{4-[2-(2-chlorophenyl)acetamido]pyridin-2-yl}-N-(3-cyanophenyl)acetamide]
16 | 96% | 407 nM |  |  | CC(=O)N(c1cccc(F)c1)c1cc(NC(=O)Cc2c(Cl)cccc2Cl)cnn1 [Example 194, N-{5-[2-(2,6-dichlorophenyl)acetamido]pyridazin-3-yl}-N-(3-fluorophenyl)acetamide]
17 | 95% | 486 nM |  |  | CC(=O)N(c1cccc(F)c1)c1cc(NC(=O)Cc2cccc(F)c2Cl)cnn1 [Example 195, N-{5-[2-(2-chloro-3-fluorophenyl)acetamido]pyridazin-3-yl}-N-(3-fluorophenyl)acetamide]
18 | 86% | 447 nM |  |  | CC(=O)N(c1ccc(F)c(F)c1)c1cc(NC(=O)Cc2ccccc2Cl)cnn1 [Example 199, N-{5-[2-(2-chlorophenyl)acetamido]pyridazin-3-yl}-N-(3,4-difluorophenyl)acetamide]
19 | 91% | 465 nM |  |  | CC(=O)N(c1ccc(F)c(F)c1)c1cc(NC(=O)Cc2c(Cl)cccc2Cl)cnn1 [Example 200, N-{5-[2-(2,6-dichlorophenyl)acetamido]pyridazin-3-yl}-N-(3,4-difluorophenyl)acetamide]
20 | 95% | 383 nM |  |  | CC(=O)N(c1cc(F)cc(F)c1)c1cc(NC(=O)Cc2c(Cl)cccc2Cl)cnn1 [Example 204, N-{5-[2-(2,6-dichlorophenyl)acetamido]pyridazin-3-yl}-N-(3,5-difluorophenyl)acetamide]
21 | 93% | 433 nM |  |  | CC(=O)N(c1cc(F)cc(F)c1)c1cc(NC(=O)Cc2ccccc2Cl)cnn1 [Example 205, N-{5-[2-(2-chlorophenyl)acetamido]pyridazin-3-yl}-N-(3,5-difluorophenyl)acetamide]
22 | 93% | 449 nM |  |  | CC(=O)N(c1cc(F)cc(F)c1)c1cc(NC(=O)Cc2cccc(F)c2Cl)cnn1 [Example 206, N-{5-[2-(2-chloro-3-fluorophenyl)acetamido]pyridazin-3-yl}-N-(3,5-difluorophenyl)acetamide]
23 | 96% | 477 nM |  |  | CC(=O)N(c1cc(F)cc(F)c1)c1cc(NC(=O)Cc2ccc(F)cc2Cl)cnn1 [Example 207, N-{5-[2-(2-chloro-4-fluorophenyl)acetamido]pyridazin-3-yl}-N-(3,5-difluorophenyl)acetamide]
